Cc1c(OCC(F)(F)F)ccnc1CS(=O)c1nc2ccccc2[nH]1 (stereo not drawn)
solubility (mole fraction)
Settings	278.15 K	283.15 K	288.15 K	293.15 K	298.15 K	303.15 K	308.15 K	313.15 K	318.15 K
in acetone	0.0174	0.0197	0.0221	0.0256	0.0287	0.0337	0.0398	0.0461	0.053
in acetonitrile	0.00324	0.00406	0.00516	0.00642	0.00805	0.01	0.0124	0.015	0.0186
in ethanol	0.00976	0.0114	0.0145	0.0179	0.0221	0.0274	0.0327	0.0402	0.0487
in ethyl acetate	0.00415	0.00512	0.00637	0.00799	0.00962	0.0118	0.0145	0.0175	0.0216
in isobutanol	0.00434	0.00534	0.00657	0.00803	0.0098	0.012	0.0148	0.0179	0.0218
in isopropanol	0.00417	0.00469	0.00569	0.00708	0.00879	0.0109	0.0136	0.0168	0.0204
in methanol	0.022	0.0271	0.0331	0.0428	0.0532	0.0653	0.0803	0.101	0.125
in methyl acetate	0.00633	0.00729	0.00849	0.0105	0.0131	0.0158	0.02	0.0245	0.03
in n-butanol	0.00564	0.00701	0.00832	0.0105	0.0127	0.016	0.0196	0.0242	0.0296
in n-butyl acetate	0.00168	0.00206	0.00259	0.00329	0.00406	0.00505	0.0063	0.00785	0.00945
in n-propanol	0.00803	0.00912	0.0108	0.0132	0.0157	0.019	0.0233	0.028	0.0335
in n-propyl acetate	0.00227	0.00268	0.00342	0.00417	0.00522	0.00654	0.00831	0.0101	0.0127

— BigSolDB 2.1
